{
  "source": "patent US20250222003A1",
  "about": "“PHARMACEUTICAL COMPOSITION FOR TREATING SOLID TUMORS” (Eisai R&D Management Co., Ltd., priority 2021, published 2025)",
  "key": {"[1]": {"test_system": "patients with a solid tumor", "conditions": "human, in vivo", "method": "This study was carried out as an open-label phase I clinical trial for Compound A. The study was composed of a dose-escalation part to evaluate the safety and tolerability of Compound A, and an expansion part to evaluate the safety, tolerability and preliminary efficacy of Compound A. Each dose in the Examples is expressed as a dose of Compound A in free form.\nIn the dose-escalation part, the safety and tolerability of Compound A was evaluated at a plurality of doses using a 3+3 design. The starting dose of Compound A was set at 10 mg BID (twice daily).\nNCI CTCAE v5.0 was used to evaluate the severity.\nThis was performed using the analysis subject populations for all safety evaluations (excluding DLT evaluations).\nSummary statistics for the safety data (continuous variables: number of cases, mean value, standard deviation, median, minimum and maximum values; categorical variables: number of cases and proportion) were calculated based on the actually administered treatments. […] The following laboratory tests were performed: hematological tests (red blood cell count, hemoglobin, hematocrit value, platelet count, white blood cell count, white blood cell fractions (neutrophils, lymphocytes, monocytes, eosinophils, basophils) coagulation test: INR), blood biochemical tests (liver function tests (AST, ALT, ALP, GGT, total bilirubin, direct bilirubin), renal function test (BUN, creatinine), other tests (blood glucose level, albumin, cholesterol, LDH, total protein, uric acid, amylase, lipase, Na, K, Cl, Ca, phosphorus, Mg, virus test: HBs antigen a, HBs antibody a, HBc antibody a, HCV antibody a, HIV antibody a, HBV DNAb, B-CTXc, 25-hydroxyvitamin Dd), and urine test (pH, protein, sugar, ketone bodies, occult blood, specific gravity))."}, "[2]": {"test_system": "patients with a solid tumor", "experiment": "Suppression of nausea or vomiting associated with administration of Compound A by antiemetics", "type": "in vivo, human", "excerpt": "For subjects of administration that had the gastrointestinal symptoms, nausea or vomiting, the results of administration of various antiemetics were investigated to determine whether they could suppress the occurrence of nausea or vomiting. The antiemetics used were domperidone ([…], Nauzelin tablet), metoclopramide (peripheral D2 receptor antagonist, metoclopramide tablet), ramosetron hydrochloride (5-HT3 receptor antagonist, Nasea tablet), granisetron (5-HT3 receptor antagonist (Kytril tablet), and the like.\nThe antiemetics were timely administered to 20 subjects of administration that complained of vomiting during Cycle 1.\nFIGS. 1 and 2 are graphs showing the relationship between Cmax(Cmax,ss) or AUC (AUC(0-tau),ss) and the vomiting flag for each test subject at the time of CID8. For example, the vomiting flag 3 means a case in which treatment with an antiemetic other than the 5-HT3 receptor antagonist was first attempted but vomiting could not be suppressed, and vomiting could be suppressed when the antiemetic was switched to the 5-HT3 receptor antagonist.\nFive additional patients were investigated whether the occurrence of nausea or vomiting, which is an adverse event having a causal relationship with Compound A, could be suppressed. Ramosetron hydrochloride or granisetron hydrochloride (5-HT3 receptor antagonist) was administered to four patients of administration that complained of vomiting during Cycle 1. Of the four patients that complained of vomiting, three patients received granisetron hydrochloride to prevent the gastrointestinal symptoms (nausea, vomiting) associated with administration of Compound A."}},
  "data": [
    {"smiles": "C=CCN1CC(=O)N2[C@@H](Cc3ccc(O)cc3F)C(=O)N(Cc3cccc(N4CC(N5CCN(CC)CC5)C4)n3)C[C@@H]2N1C(=O)NCc1ccccc1", "note": "[Compound A, (6S,9aS)—N-benzyl-8-({6-[3-(4-ethylpiperazin-1-yl)azetidin-1-yl]pyridin-2-yl}methyl)-6-(2-fluoro-4-hydroxybenzyl)-4,7-dioxo-2-(prop-2-en-1-yl)hexahydro-2H-pyrazino[2,1-c][1,2,4]triazine-1 (6H)-carboxamide]", "values": [
      {"measurement": "Subjects with Any Treatment-related TEAEs, Any Grade, (%)", "setting": "[1]", "value": "(89.3) %"},
      {"measurement": "Subjects with Any Treatment-related TEAEs, Grade ≥3, (%)", "setting": "[1]", "value": "(10.7) %"},
      {"measurement": "TEAE Alanine aminotransferase increased, Any Grade, (%)", "setting": "[1]", "value": "(14.3) %"},
      {"measurement": "TEAE Amylase increased, Any Grade, (%)", "setting": "[1]", "value": "(3.6) %"},
      {"measurement": "TEAE Anemia, Any Grade, (%)", "setting": "[1]", "value": "(10.7) %"},
      {"measurement": "TEAE Aspartate aminotransferase increased, Any Grade, (%)", "setting": "[1]", "value": "(14.3) %"},
      {"measurement": "TEAE C-telopeptide increased, Any Grade, (%)", "setting": "[1]", "value": "(3.6) %"},
      {"measurement": "TEAE Decreased appetite, Any Grade, (%)", "setting": "[1]", "value": "(10.7) %"},
      {"measurement": "TEAE Decreased appetite, Grade ≥3, (%)", "setting": "[1]", "value": "(7.1) %"},
      {"measurement": "TEAE Diarrhea, Any Grade, (%)", "setting": "[1]", "value": "(7.1) %"},
      {"measurement": "TEAE Electrocardiogram QT prolonged, Any Grade, (%)", "setting": "[1]", "value": "(3.6) %"},
      {"measurement": "TEAE Hyperphosphatemia, Any Grade, (%)", "setting": "[1]", "value": "(3.6) %"},
      {"measurement": "TEAE Lipase increased, Any Grade, (%)", "setting": "[1]", "value": "(3.6) %"},
      {"measurement": "TEAE Lipase increased, Grade ≥3, (%)", "setting": "[1]", "value": "(3.6) %"},
      {"measurement": "TEAE Liver disorder, Any Grade, (%)", "setting": "[1]", "value": "(3.6) %"},
      {"measurement": "TEAE Nausea, Any Grade, (%)", "setting": "[1]", "value": "(78.6) %"},
      {"measurement": "TEAE Osteoporosis, Any Grade, (%)", "setting": "[1]", "value": "(3.6) %"},
      {"measurement": "TEAE Rash, Any Grade, (%)", "setting": "[1]", "value": "(3.6) %"},
      {"measurement": "TEAE Sinus tachycardia, Any Grade, (%)", "setting": "[1]", "value": "(3.6) %"},
      {"measurement": "TEAE Stomatitis, Any Grade, (%)", "setting": "[1]", "value": "(3.6) %"},
      {"measurement": "TEAE Vomiting, Any Grade, (%)", "setting": "[1]", "value": "(67.9) %"},
      {"measurement": "TEAE White blood cell count decreased, Any Grade, (%)", "setting": "[1]", "value": "(7.1) %"},
      {"measurement": "recommended dose", "setting": "[1]", "value": "less than 160 mg BID"},
      {"measurement": "Vomiting flag 0, N: neither nausea nor vomiting observed, or antiemetics not required", "setting": "[2]; Table 10, before additional cases", "value": 10},
      {"measurement": "Vomiting flag 0, N: neither nausea nor vomiting observed, or antiemetics not required", "setting": "[2]; Table 14, entire dose-escalation part incl. additional cases", "value": 11}
    ]}
  ]
}
